Measured values published in ChEMBL document CHEMBL5550173, “Design, synthesis and biological evaluation of indoline-maleimide conjugates as potential antitumor agents for the treatment of colorectal cancer” (Bioorg Med Chem, 2024).
Calls of active or inactive are those of the source. The calls are words filed in the database; no cut-off is given here.

Assays:
[1] = test system: HCT-116; assay: Effect on cyclin D1 expression in human HCT-116 cells at 2.5 to 10 uM incubated for 48 hrs by Western blotting analysis; type: functional, cell-based; details: dose 2.5-10 µM
[2] = test system: RKO; assay: Induction of apoptosis in human RKO cells assessed as late apoptotic cells at 2.5 uM incubated for 48 hrs by Annexin V-PE and propidium iodide staining based flow cytometry analysis (reference value: 0.3%); type: functional
[3] = test system: HCT-116; assay: Effect on CDK2 expression in human HCT-116 cells at 2.5 to 10 uM incubated for 48 hrs by Western blotting analysis; type: functional, cell-based; details: dose 2.5-10 µM
[4] = test system: HCT-116; assay: Induction of apoptosis in human HCT-116 cells assessed as early apoptotic cells at 2.5 uM incubated for 48 hrs by Annexin V-PE and propidium iodide staining based flow cytometry analysis (reference value: 0.4%); type: functional
[5] = test system: HCT-116; assay: Antitumor activity against human HCT-116 cells xenografted in BALB/c mouse assessed as reduction in tumor volume at 5 to 10 mg/kg, ip measured every 2 days; type: functional, organism-based; details: dose 5-10 mg/kg
[6] = test system: HCT-116; assay: Inhibition of colony formation in human HCT-116 cells incubated for 10 days with every 3 days of media replacement by crystal violet staining based assay; type: functional, cell-based; details: dose 1-4 µM, time 10.0 day
[7] = test system: HCT-116; assay: Induction of apoptosis in human HCT-116 cells assessed as upregulation of cleaved caspase-3 expression incubated for 48 hrs by Western blotting analysis; type: functional, cell-based; details: dose 2.5-10 µM
[8] = test system: HCT-116; assay: Effect on RB1 expression in human HCT-116 cells at 2.5 to 10 uM incubated for 48 hrs by Western blotting analysis; type: functional, cell-based; details: dose 2.5-10 µM
[9] = Acute toxicity in BALB/c mouse assessed as body weight loss at 50 to 100 mg/kg, ip measured every 2 days; type: organism-based; details: in vivo, 48 h, dose 50-100 mg/kg
[10] = test system: HCT-116; assay: Induction of apoptosis in human HCT-116 cells assessed as viable cells at 5 uM incubated for 48 hrs by Annexin V-PE and propidium iodide staining based flow cytometry analysis (reference value: 97.8%); type: functional; details: read-out: Activity
[11] = Cytotoxicity against human NCM460 cells incubated for 72 hrs by MTS assay; type: toxicity, cell-based
[12] = test system: HCT-116; assay: Induction of cell cycle arrest in human HCT-116 cells assessed as decrease in S phase cells incubated for 48 hrs by propidium iodide staining based flow cytometry analysis; type: functional; details: dose 2.5-10 µM
[13] = test system: HCT-116; assay: Antitumor activity against human HCT-116 cells xenografted in BALB/c mouse assessed as tumor growth suppression at 5 to 10 mg/kg, ip measured every 2 days; type: functional, organism-based; details: dose 5-10 mg/kg
[14] = test system: HCT-116; assay: Cytotoxicity against human HCT-116 cells at 5 uM incubated for 72 hrs by MTS assay; type: functional
[15] = test system: RKO; assay: Induction of apoptosis in human RKO cells assessed as necrotic cells at 10 uM incubated for 48 hrs by Annexin V-PE and propidium iodide staining based flow cytometry analysis (reference value: 0.3%); type: functional
[16] = test system: HCT-116; assay: Antitumor activity against human HCT-116 cells xenografted in BALB/c mouse assessed as tumor growth suppression at 5 to 10 mg/kg, ip measured every 2 days by H and E staining based assay; type: functional, organism-based; details: dose 5-10 mg/kg
[17] = test system: RKO; assay: Effect on CDK2 expression in human RKO cells at 2.5 to 10 uM incubated for 48 hrs by Western blotting analysis; type: functional, cell-based; details: dose 2.5-10 µM
[18] = test system: RKO; assay: Induction of cell cycle arrest in human RKO cells assessed as downregulation of p-Rb expression at 2.5 to 10 uM incubated for 48 hrs by Western blotting analysis; type: functional, cell-based; details: dose 2.5-10 µM
[19] = test system: HT-29; assay: Cytotoxicity against human HT-29 cells at 5 uM incubated for 72 hrs by MTS assay; type: functional
[20] = Acute toxicity in BALB/c mouse assessed as appearance of abnormal behavior at 50 to 100 mg/kg, ip measured every 2 days; type: organism-based; details: in vivo, 48 h, dose 50-100 mg/kg
[21] = test system: RKO; assay: Induction of apoptosis in human RKO cells assessed as necrotic cells at 5 uM incubated for 48 hrs by Annexin V-PE and propidium iodide staining based flow cytometry analysis (reference value: 0.3%); type: functional
[22] = test system: RKO; assay: Inhibition of colony formation in human RKO cells incubated about 10 days with every 3 days of media replacement by crystal violet staining based assay; type: functional, cell-based; details: dose 1-4 µM, time 10.0 day
[23] = test system: RKO; assay: Induction of apoptosis in human RKO cells assessed as late apoptotic cells at 5 uM incubated for 48 hrs by Annexin V-PE and propidium iodide staining based flow cytometry analysis (reference value: 0.3%); type: functional
[24] = test system: HT-29; assay: Cytotoxicity against human HT-29 cells incubated for 72 hrs by MTS assay; type: functional, cell-based; details: HT-29, 72 h
[25] = test system: RKO; assay: Effect on RB1 expression in human RKO cells at 2.5 to 10 uM incubated for 48 hrs by Western blotting analysis; type: functional, cell-based; details: dose 2.5-10 µM
[26] = target: Glycogen synthase kinase-3 beta (Homo sapiens) (UniProt P49841); assay: Inhibition of GSK-3beta phosphorylation in human HCT-116 cells by incubated for 48 hrs Western blotting analysis; type: cell-based; details: dose 2.5-10 µM
Sequence of Glycogen synthase kinase-3 beta (Homo sapiens) (P49841 whole entry, looked up): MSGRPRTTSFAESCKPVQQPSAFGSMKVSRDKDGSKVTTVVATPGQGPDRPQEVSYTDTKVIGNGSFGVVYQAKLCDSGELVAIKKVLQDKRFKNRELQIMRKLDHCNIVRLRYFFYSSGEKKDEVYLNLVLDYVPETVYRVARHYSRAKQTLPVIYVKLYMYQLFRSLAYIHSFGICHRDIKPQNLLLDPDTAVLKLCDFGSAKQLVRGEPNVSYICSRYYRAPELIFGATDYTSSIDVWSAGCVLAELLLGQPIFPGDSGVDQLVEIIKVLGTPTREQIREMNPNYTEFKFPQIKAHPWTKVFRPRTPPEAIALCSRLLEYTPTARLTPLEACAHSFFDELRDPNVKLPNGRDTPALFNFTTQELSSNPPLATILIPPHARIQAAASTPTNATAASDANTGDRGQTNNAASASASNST

[27] = test system: RKO; assay: Induction of cell cycle arrest in human RKO cells assessed as upregulation of p21 expression at 2.5 to 10 uM incubated for 48 hrs by Western blotting analysis; type: functional, cell-based; details: dose 2.5-10 µM
[28] = test system: HCT-116; assay: Cytotoxicity against human HCT-116 cells incubated for 72 hrs by MTS assay; type: functional, cell-based; details: HCT-116, 72 h
[29] = test system: RKO; assay: Induction of apoptosis in human RKO cells assessed as early apoptotic cells at 10 uM incubated for 48 hrs by Annexin V-PE and propidium iodide staining based flow cytometry analysis (reference value: 0.2%); type: functional
[30] = test system: RKO; assay: Induction of apoptosis in human RKO cells assessed as necrotic cells at 2.5 uM incubated for 48 hrs by Annexin V-PE and propidium iodide staining based flow cytometry analysis (reference value: 0.3%); type: functional
[31] = test system: HCT-116; assay: Effect on GSK-3beta level in human HCT-116 cells at 2.5 to 10 uM incubated for 48 hrs by Western blotting analysis; type: functional, cell-based; details: dose 2.5-10 µM
[32] = test system: RKO; assay: Induction of apoptosis in human RKO cells assessed as viable cells at 10 uM incubated for 48 hrs by Annexin V-PE and propidium iodide staining based flow cytometry analysis (reference value: 99.2%); type: functional; details: read-out: Activity
[33] = test system: RKO; assay: Induction of apoptosis in human RKO cells assessed as early apoptotic cells at 5 uM incubated for 48 hrs by Annexin V-PE and propidium iodide staining based flow cytometry analysis (reference value: 0.2%); type: functional
[34] = test system: RKO; assay: Induction of cell cycle arrest in human RKO cells assessed as downregulation of CDK6 expression at 2.5 to 10 uM incubated for 48 hrs by Western blotting analysis; type: functional, cell-based; details: dose 2.5-10 µM
[35] = test system: RKO; assay: Cytotoxicity against human RKO cells at 5 uM incubated for 72 hrs by MTS assay; type: functional
[36] = test system: HCT-116; assay: Induction of cell cycle arrest in human HCT-116 cells assessed as downregulation of CDK6 expression at 2.5 to 10 uM incubated for 48 hrs by Western blotting analysis; type: functional, cell-based; details: dose 2.5-10 µM
[37] = test system: RKO; assay: Effect on cyclin D1 expression in human RKO cells at 2.5 to 10 uM incubated for 48 hrs by Western blotting analysis; type: functional, cell-based; details: dose 2.5-10 µM
[38] = test system: HCT-116; assay: Induction of apoptosis in human HCT-116 cells assessed as late apoptotic cells at 5 uM incubated for 48 hrs by Annexin V-PE and propidium iodide staining based flow cytometry analysis (reference value: 0.5%); type: functional
[39] = test system: HCT-116; assay: Effect on AKT level in human HCT-116 cells at 2.5 to 10 uM incubated for 48 hrs by Western blotting analysis; type: functional, cell-based; details: dose 2.5-10 µM

With `C=C(C)C(=O)N1CCc2cccc(C3=CC(=O)N(C)C3=O)c21` the Activity [1] was “inactive”, the Activity [2] was 0.4% and the Activity [3] was “inactive”. The Activity [4] was 0.7%, the Activity [5] was “Active” and the inhibition [6] was “Dose-Dependent Effect”. The Activity [7] was “Dose-Dependent Effect”, the Activity [8] was “inactive” and the Activity [9] was “Non-Toxic”. The viability at 5 µM [10] was 93.6%, the IC50 at 72 h [11] was 63.7 µM and the Activity [12] was “Dose-Dependent Effect”. For the same molecule, the Activity [13] was “Active”, the Activity [14] was 98.06% and the Activity [15] was 0.7%. The Activity [16] was “Active”, the Activity [17] was “inactive” and the Activity [18] was “Active”. For the same molecule, the Activity [19] was 99.28%, the Activity [20] was “Non-Toxic” and the Activity [21] was 0%. For the same molecule, the inhibition [22] was “Dose-Dependent Effect”, the Activity [23] was 0.4% and the IC50 [24] was 1.73 µM. The Activity [25] was “inactive”, the inhibition [26] was “Dose-Dependent Effect” and the Activity [27] was “Active”. It also gave an IC50 [28] of 1.57 µM, an Activity [29] of 4.9% and an Activity [30] of 0.1%. For the same molecule, the Activity [31] was “inactive”, the viability at 10 µM [32] was 93.4% and the Activity [33] was 1.5%. The Activity [34] was “Active”, the Activity [35] was 100.1% and the Activity [36] was “Active”. The Activity [37] was “inactive”, the Activity [38] was 1.7% and the Activity [39] was “inactive”.
